According to patent US12133899B2 (priority 2020, dated 2024):

How the values were obtained:
in vivo = type: in vivo, rats; conditions: rat; for drop of concentration in liver / drop of concentration in plasma: 2 weeks
Procedure: A single dose PK study of ALC-0315 and […] following intravenous (IV) bolus injection of a nanparticle formulation in rats was conducted to assess the PK and metabolism of lipid excipients ALC-0315 and ALC-0159.

[1] = type: in vitro ADME, mice, rats, monkeys, humans; conditions: blood, microsomes, S9, hepatocytes; rat samples
Procedure: In vitro metabolism of ALC-0315 and ALC-0159 was evaluated in blood, liver microsomes, S9 fractions, and hepatocytes from mice, rats, monkeys, and humans. In vivo metabolism was examined in rat plasma, urine, faeces, and liver samples from the PK study. […] ALC-0315 and ALC-0159 are apparently metabolised by hydrolytic metabolism of the ester and amide functionalities, respectively, and this hydrolytic metabolism is observed across the species evaluated.

luciferase expression = type: in vivo, mice; conditions: ALC-0315/DSPC/CHOL/ALC-0159 prototype; IV

| Molecule | half-life (in vivo; in vivo, IV bolus, read-out: apparent terminal t½ in plasma and liver) | eliminated unchanged in faeces (in vivo) | drop of concentration in liver (in vivo; IV bolus) | drop of concentration in plasma (in vivo; IV bolus) | metabolism in vitro and in vivo [1] | in vivo potency of Luc RNA LNP vs internal benchmark ALC-0218 (luciferase expression) | unchanged material in urine or faeces (in vivo) | apparent terminal t½ in plasma and liver (in vivo; IV bolus) |
| --- | --- | --- | --- | --- | --- | --- | --- | --- |
| CCCCCCCCCCCCCCN(CCCCCCCCCCCCCC)C(=O)COCCOCCOCCOCCOCCOCCOCCOCCOCCOCCOCCOCCOCCOCCOCCOCCOCCOCCOCCOCCOCCOCCOCCOCCOCCOCCOCCOCCOCCOCCOCCOCCOCCOCCOCCOCCOCCOCCOCCOCCOCCOCCOCCOCCOCCOC [ALC-0159, 2-[(polyethylene glycol)-2000]-N,N-ditetradecylacetamide] | 48 to 72 h | 50% | > 250 fold | approximately 8000 fold | relatively slowly |  |  |  |
| ((4-hydroxybutyl)azanediyl)bis(hexane-6,1-diyl)bis(2-hexyldecanoate) [ALC-0315] |  |  | ~4 fold | approximately 7000 fold | relatively slowly | improved potency | little to no unchanged material was detected | 140 to 190 h |
